“And” between values parts separate entries of the source, which are not always exact repeats. Equal values may be shown once. “Also recorded” adds a separate entry of the source. Read-outs that look alike come from different tables or passages of the source.
Columns and labels:
male Albino Wistar rats = assay: Social preference test (caged conspecific vs toy rat); assay type: in vivo; conditions: 5 mg/kg IP
rats = assay: Non-social tests of anxiety (elevated plus maze, open field); assay type: in vivo, rat; conditions: acute dosing or residual long-term effect
V1aR = molecular target: T1, V1aR (Homo sapiens, UniProt P37288); assay: IP1 signalling on V1aR HEK cells; assay type: cell-based
T1 construct: expressed in transfected cells; host or cells: HEK cells

[1] = 24-hour pharmacokinetic study, intravenous route; assay type: in vivo, male Sprague Dawley rats; conditions: 20 mg/kg IV; for Vd: read-out: Vz
Protocol: A single intravenous 20 mg/kg (corresponding to ˜17.1 mg/kg expressed as the free base corrected for purity) bolus dose of SOC-1 test item formulated in Hartman's solution was administered to three adult male Sprague Dawley rats. A total of 10 blood samples were collected from each rat at time points ranging from pre-dose to 24 hours post-dose. The blood samples were subsequently processed to plasma and analysed for plasma concentrations of SOC-1 using a screening LC-MS/MS method (assay range=50-5000 ng/mL). Pharmacokinetic parameters were estimated from the plasma concentration versus time data by non-compartmental methods using Phoenix 64 WinNonlin® software.
Prior to treatments the rats were subject to surgery to cannulate the jugular vein (for dose administration, IV) and femoral artery (for blood sample collection, IA) with exteriorisation of the cannulas per test facility SOPs. Following recovery from surgery the rats were transferred to a Culex system for dose administration and blood sampling (with both lines tended per test facility SOPs).
The intravenous treatments were administered via the jugular cannula with a dosing volume of 4.0 mL/kg on the day following surgery. The treatments were followed by ˜200 μL vehicle to ensure a full dose was delivered to the animals.
Blood samples (˜250 μl) were collected in lithium heparin tubes from the IA cannula at the following time points: pre-dose, 2, 5, 10, 30, 60 minutes, 2, 4, 8 and 24 hours post-dose
Blood samples were kept on ice immediately after collection to minimize degradation and centrifuged as soon as possible at approximately 4000×rcf for 10 min. Pre-dose samples were centrifuged separately prior to dosing. The plasma was then transferred to polypropylene tubes and stored frozen at −80° C.
Plasma concentrations of SOC-1 were determined using a screening LC-MS/MS method with a following liquid/liquid extraction. Briefly, 50 μL aliquots of the test samples and calibration standards were mixed with 1 mL of hexane:dichloromethane (1:1) for 5 minutes following the addition of 10 μl of internal standard, then centrifuged and the organic phase decanted and dried under nitrogen. The samples were then reconstituted with 0.5 mL of 0.1% formic acid in 30% methanol in deionised water and 0.2 mL transferred to a 96 well plate. A 5 μL aliquot of this sample was then analysed using an ABSciex API 4000 MS/MS coupled to a Shimadzu Prominence HPLC. The HPLC gradients included 0.1% formic acid in deionised water (Mobile Phase A) and 0.1% formic acid in methanol (Mobile Phase B). The LC-MS/MS instrument settings are summarised in Appendix 2. The samples were analysed with calibrated samples (50 to 5000 ng/mL) and concentration data determined by back calculation from the standard curve.
Group mean±standard error values for plasma concentration versus time values were determined using Phoenix 64 WinNonlin software. The following pharmacokinetic parameters were also calculated by non-compartmental methods, using Phoenix 64 WinNonlin software: • Rsq—Coefficient of association for the terminal elimination phase (R2). • Lambda—Terminal elimination rate constant associated with the terminal (log-linear) portion of the curve (1/h). • T1/2—Terminal elimination half-life (h) • C0—Initial concentration at time 0 min (ng/mL) determined by back-extrapolating from the first two measured concentration values. • Tmax—Time to maximum plasma concentration following extravascular administration. • Cmax—Maximum plasma concentration following extravascular administration • AUClast—Area under the curve from the time of dosing (Dosing time, time 0 min) to the last measurable concentration (ng·h/mL). • AUCinf—AUC from Dosing time extrapolated to infinity, based on the last observed concentration (obs). (ng·h/mL). • AUC % Extrap—Percentage of AUCinf due to extrapolation from time of last measurable concentration to infinity. • Vz—Volume of distribution (L/kg). • Cl—Total body clearance (L/h/kg). […]

male Sprague Dawley rats = assay: Methamphetamine-primed reinstatement; assay type: in vivo, rat
OTR = molecular target: T2, OTR (Homo sapiens, UniProt P30559); assay: IP1 signalling on OTR HEK cells; assay type: cell-based
T2 construct: expressed in transfected cells; host or cells: HEK cells

[2] = male, Sprague Dawley, rat, in vivo, Mean, N 3
[3] = male, Sprague Dawley, rat, plasma, iv, 20 mg/kg, individual rats

T1 sequence (P37288 whole entry): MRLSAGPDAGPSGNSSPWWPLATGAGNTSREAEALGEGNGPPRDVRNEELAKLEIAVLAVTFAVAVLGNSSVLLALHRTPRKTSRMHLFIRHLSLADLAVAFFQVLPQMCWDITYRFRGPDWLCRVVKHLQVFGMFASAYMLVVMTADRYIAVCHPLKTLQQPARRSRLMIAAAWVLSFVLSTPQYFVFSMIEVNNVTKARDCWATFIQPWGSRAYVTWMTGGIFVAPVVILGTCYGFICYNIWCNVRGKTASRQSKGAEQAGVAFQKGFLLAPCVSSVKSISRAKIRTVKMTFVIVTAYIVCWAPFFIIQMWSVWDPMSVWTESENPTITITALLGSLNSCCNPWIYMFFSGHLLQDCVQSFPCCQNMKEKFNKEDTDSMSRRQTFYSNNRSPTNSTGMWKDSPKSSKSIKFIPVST
T2 sequence (P30559 whole entry): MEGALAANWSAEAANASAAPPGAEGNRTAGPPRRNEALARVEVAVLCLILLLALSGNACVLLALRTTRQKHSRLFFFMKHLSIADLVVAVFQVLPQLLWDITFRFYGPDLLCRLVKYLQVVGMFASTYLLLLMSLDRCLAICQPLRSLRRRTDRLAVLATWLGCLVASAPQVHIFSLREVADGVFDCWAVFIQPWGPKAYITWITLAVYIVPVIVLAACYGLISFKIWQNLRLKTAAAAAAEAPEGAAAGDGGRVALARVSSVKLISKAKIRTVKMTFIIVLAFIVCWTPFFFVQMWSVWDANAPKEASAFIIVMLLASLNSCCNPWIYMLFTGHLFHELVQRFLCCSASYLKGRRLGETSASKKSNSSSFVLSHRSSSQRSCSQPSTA

In the case of `Cl.Cn1ncc2c1Nc1ccccc1NC2` [SOC-1], the “preference for the live rat over a toy rat” value (male Albino Wistar rats) is reported as “enhanced rats natural preference for an unfamiliar live rat; also recorded: significantly elevated preference for the live rat”, the “effect in non-social tests of anxiety” value (rats) is reported as “without effect” and the “agonist or positive allosteric modulator activity at V1aR” value (V1aR) is reported as “not an agonist or positive allosteric modulator of V1aRs”. For the same molecule, the “antagonist activity at V1aR” value (V1aR) was “weak antagonist activity”, the “tolerability, morbidity or mortality” value [1] was “tolerated and there were no findings of morbidity or mortality” and the “Plasma SOC-1” value ([1]; 2 minutes post-dose, individual rats #1-#3) was 12600 ng/mL and 16500 ng/mL. For the same molecule, the “Plasma SOC-1” value ([1]; 5 minutes post-dose, individual rats #1-#3) was 13100 ng/mL and 12200 ng/mL, the “Plasma SOC-1” value ([1]; 10 minutes post-dose, individual rats #1-#3) was 10900 ng/mL and 11700 ng/mL and the “Plasma SOC-1” value ([1]; 30 minutes post-dose, individual rats #1-#3) was 8790 ng/mL and 8120 ng/mL. The “Plasma SOC-1” value ([1]; 1 hour (60 minutes) post-dose, individual rats #1-#3) was 6480 ng/mL and 6310 ng/mL, the “Plasma SOC-1” value ([1]; 2 hours post-dose, individual rats #1-#3) was 3610 ng/mL and 2980 ng/mL and the “Plasma SOC-1” value ([1]; 4 hours post-dose, individual rats #1-#3) was 115 ng/mL and 286 ng/mL and 97.3 ng/mL. The “Plasma SOC-1” value ([1]; 8 hours post-dose, individual rats #1-#3) was “BLOQ^a) (below lower limit of quantitation of 50 ng/mL)”, the “Plasma SOC-1” value ([1]; 24 hours post-dose, individual rats #1-#3) was “BLOQ^a) (below lower limit of quantitation of 50 ng/mL)” and the “AUC % Extrap” value ([1]; Mean, N 3) was 0.803%. The Lambda ([1]; Mean, N 3) was 1.28 h⁻¹, the “AUC % Extrap” value ([1]; individual rats) was 0.559% and 1.45% and 0.398% and the AUCinf ([1]; individual rats) was 18400 ng·h/mL and 17000 ng·h/mL. For the same molecule, the AUClast ([1]; individual rats) was 18100 ng·h/mL and 17000 ng·h/mL, the C0 ([1]; individual rats) was 12600 ng/mL and 20100 ng/mL and the Cl ([1]; individual rats) was 0.931 L/h/kg and 1.00 L/h/kg. The Lambda ([1]; individual rats) was 1.33 h⁻¹ and 1.07 h⁻¹ and 1.44 h⁻¹, the T1/2 ([1]; individual rats) was 38.8 min and 29 min and the Vz ([1]; individual rats) was 0.868 L/kg and 0.699 L/kg. The AUC(0-inf) [1, 2] was 17000 ng·h/mL, the clearance [1, 2] was 16.8 mL/min/kg and the half-life [1, 2] was 33 min. For the same molecule, the C0 ([1]; male, Sprague Dawley, rat, in vivo, Mean, N 3, read-out: C0) was 18200 ng/mL, the Vd [1, 2] was 0.799 L/kg and the concentration at 2 min ([1]; male, Sprague Dawley, rat, plasma, intravenous, 20 mg/kg, 2 minutes post-dose, individual rats #1-#3, read-out: Plasma SOC-1) was 17200 ng/mL. For the same molecule, the concentration at 5 min ([1]; male, Sprague Dawley, rat, plasma, intravenous, 20 mg/kg, 5 minutes post-dose, individual rats #1-#3, read-out: Plasma SOC-1) was 11900 ng/mL, the concentration at 10 min ([1]; male, Sprague Dawley, rat, plasma, intravenous, 20 mg/kg, 10 minutes post-dose, individual rats #1-#3, read-out: Plasma SOC-1) was 12800 ng/mL and the concentration at 30 min ([1]; male, Sprague Dawley, rat, plasma, intravenous, 20 mg/kg, 30 minutes post-dose, individual rats #1-#3, read-out: Plasma SOC-1) was 7120 ng/mL. The concentration at 1 h ([1]; male, Sprague Dawley, rat, plasma, intravenous, 20 mg/kg, 1 hour (60 minutes) post-dose, individual rats #1-#3, read-out: Plasma SOC-1) was 5720 ng/mL, the concentration at 2 h ([1]; male, Sprague Dawley, rat, plasma, intravenous, 20 mg/kg, 2 hours post-dose, individual rats #1-#3, read-out: Plasma SOC-1) was 2310 ng/mL and the AUC(0-t) ([1]; male, Sprague Dawley, rat, plasma, iv, 20 mg/kg, Mean, N 3) was 16800 ng·h/mL. The AUC(0-inf) [1, 3] was 15500 ng·h/mL, the AUC(0-t) [1, 3] was 15400 ng·h/mL and the clearance [1, 3] was 18.5 mL/min/kg. The half-life [1, 3] was 31.3 min, the C0 ([1]; male, Sprague Dawley, rat, plasma, iv, 20 mg/kg, individual rats, read-out: C0) was 21900 ng/mL and the Vd [1, 3] was 0.831 L/kg. For the same molecule, the “lever-pressing activity, SOC-1 on its own (SOC-1+vehicle)” value (male Sprague Dawley rats; 10 mg/kg, vs extinction day prior, p=0.147) was “did not significantly alter lever-pressing activity”, the “locomotor activity across reinstatement sessions” value (male Sprague Dawley rats; 2.5 (p=0.006), 5 and 10 mg/kg (p<0.005) prior to methamphetamine prime) was “significantly lower” and the “active lever pressing produced by a methamphetamine prime” value (male Sprague Dawley rats; 2.5, 5 and 10 mg/kg IP, each p<0.005 vs vehicle) was “significantly reduced active lever pressing”. The “locomotor activity, sole administration of SOC-1” value (male Sprague Dawley rats; vs previous extinction session, p=0.472) was “did not significantly change locomotor activity” and the “agonist, antagonist or positive allosteric modulator activity at OTR” value (OTR) was “not an agonist or antagonist at OTRs, nor a positive allosteric modulator of the OTR”.

— patent US11890287B2, “Therapeutic compounds and compositions for treating social disorders and substance use disorders” (Kinoxis Therapeutics Pty Ltd, priority 2015, dated 2024)
